Tests used:
Format in all cases: cell-based, mouse
MC3T3-E1 cells [1] = experiment: Cell death assay (count of attached cells after 48 hours from subconfluence)
Description: (§1) To evaluate the effects of DHMBA on cell death of osteoblasts MC3T3-E1, the cells (1×10^5/ml medium per well in a 24-well plate) were cultured in a-MEM containing 10% FBS and 1% P/S. After culturing for 3 days until reaching subconfluence, either a reagent vehicle (1% ethanol as final concentration) or DHMBA (0.1, 1, 10, 100, or 1000 mM) was added, and the cells were further cultured for 48 hours. After culture, to count the number of cells attached to each well, a […] containing 0.05% trypsin and EDTA (0.1 ml per well) was added, and then the culture plates were incubated at 37°C for 2 minutes. Subsequently, a-MEM (0.9 ml) containing 10% FBS and 1% P/S was added, and the cells were detached and mixed by pipetting. The cell suspension (0.1 ml) was mixed with 0.1 ml of 0.5% trypan blue staining solution. By this staining, […]. Viable cells were counted under a microscope (Olympus MTV-3) using a hemocytometer (Sigma-Aldrich, St. Louis, MO) and a cell counter (H-102P, Line Seiki Co., Ltd., Tokyo, Japan), and the average of two counts was calculated. Cell numbers were expressed as the number per well.

NF-kB = NF-kB reporter assay (luciferase); conditions: Fig. 8C
Description: An NF-kB-responsive luciferase reporter assay (pNF-kB-Luc, BD Biosciences) was performed according to the method previously described by the present inventors. MC3T3-E1 cells (2×10^4 cells per well in […] in a 96-well plate) were cultured for 24 hours in a-MEM containing 10% FBS and 1% P/S. After culture, the medium was removed, and the cells were washed twice with a-MEM without FBS or antibiotics. a-MEM ([…]) without FBS or antibiotics was then added to each well containing the cells. A reporter plasmid or an empty vector control (pGL3-Basic) was transfected into MC3T3-E1 cells using Lipofectamine 2000 Reagent (Invitrogen) in a-MEM without FBS or antibiotics. Five hours later, the medium was replaced with a-MEM containing 10% FBS and 1% P/S, and the cells were stimulated with TNF-a (1 or 10 ng/ml) for 24 hours. In parallel, the cells were cultured with either a reagent vehicle (1% ethanol as final concentration) or DHMBA (1 or 10 mM). After culture, the cells were extracted with Passive Lysis Buffer (Promega Corp., Madison, WI), and luciferase activity was measured using a Luciferase Assay System (Promega Corp.) with a microplate reader (Turner Designs, Inc., Sunnyvale, CA, USA). Equal transfection efficiency among all plasmids was validated by using the luciferase reporter plasmid pRL-SV40 (Promega Corp., Madison, WI).

NF-kB p65 = experiment: Western blotting of cell lysates; conditions: 3 days
Description: MC3T3-E1 cells (1×10^6 cells in 10 ml medium in a 100-mm dish) were cultured for 3 days in a-MEM containing 10% FBS and 1% P/S in the presence of a reagent vehicle (1% ethanol as final concentration), DHMBA (10 mM), TNF-a (10 ng/ml medium), or DHMBA (10 mM) in combination with TNF-a (10 ng/ml). After culture, the dishes were washed three times with cold PBS (10 ml), and adherent cells were removed from the dishes by scraping in Cell Lysis Buffer (Cell Signaling Technology, Inc., Danvers, MA, USA). Protein samples obtained from the cell lysates were loaded ([…] per lane) and separated by SDS-polyacrylamide gel electrophoresis (12% SDS-PAGE), as previously described. After electrophoresis, the membranes were incubated overnight at 4°C with primary antibodies (each diluted 1:1,000) against target proteins NF-kB p65 (catalog no. 3034, rabbit) and b-actin (catalog no. 3700, mouse). […] Protein bands were then detected using a chemiluminescent substrate (catalog no. 34577, Thermo Fisher Scientific Inc., Rockford, IL, USA) on X-ray film. A total of four films obtained from four independent experiments using separate membranes were scanned using an Epson Perfection 1660 Photo scanner, and band intensities were quantified using ImageJ2 software (National Institutes of Health, Bethesda, MD, USA).

MC3T3-E1 cells [2] = experiment: Cell proliferation assay (cell counting)
Description: To examine progression of cell proliferation, MC3T3-E1 cells (1×10^5/ml medium per well) were cultured using a 24-well plate in a-MEM supplemented with 10% FBS and 1% P/S at 37°C in a water-saturated atmosphere containing 5% CO2 and 95% air. The cells were cultured for 1, 2, 3, 4, or 5 days in the presence of a vehicle (1% ethanol as final concentration) or DHMBA (10 mM). In another experiment, to evaluate the effects of increased concentrations of DHMBA on MC3T3-E1 cells, the cells (1×10^5/ml per well) were cultured using a 24-well plate in DMEM (containing 10% FBS and 1% P/S). The cells were cultured for 3 days in the presence of either a reagent vehicle (1% ethanol as final concentration) or DHMBA (0.1, 1, 10, 100, or 1000 mM).
as §1

What does the source list for `COc1c(O)cc(CO)cc1O` [DHMBA, 3,5-dihydroxy-4-methoxybenzyl alcohol]?
number of cells attached to the dishes (cell death) (MC3T3-E1 cells [1]; DHMBA 0.1, 1, 10, or 100 mM, 48 hours after subconfluence, Fig. 1C): not changed; number of cells (cell death) (MC3T3-E1 cells [1]; DHMBA 1000 mM, 48 hours after subconfluence, Fig. 1C): significantly decreased; TNF-a-enhanced death of MC3T3-E1 cells (MC3T3-E1 cells [1]; TNF-a 1 or 10 ng/ml plus DHMBA 1 or 10 mM, 48 hours, Fig. 3B): suppressed; NF-kB promoter activity in MC3T3-E1 cells (NF-kB; DHMBA in the absence of TNF-a): reduced; TNF-a-induced increase of NF-kB promoter activity in MC3T3-E1 cells (NF-kB; TNF-a 1 or 10 ng/ml plus, 24 hours): suppressed; expression level of NF-kB p65 in MC3T3-E1 cells (NF-kB p65; DHMBA 10 mM, without TNF-a, Figs. 8A and 8B): reduced; TNF-a-induced increase of the level of NF-kB p65 (NF-kB p65; TNF-a 10 ng/ml plus DHMBA 10 mM, Fig. 8A and 8B): suppressed; proliferation of MC3T3-E1 cells (MC3T3-E1 cells [2]; DHMBA 10 mM, cultured 1, 2, 3, 4, or 5 days, vs vehicle (1% ethanol), Fig. 1A): no significant change; proliferation of MC3T3-E1 cells (MC3T3-E1 cells [2]; DHMBA 0.1, 1, 10, or 100 mM, 3 days, Fig. 1B): not changed; cell proliferation (MC3T3-E1 cells [2]; DHMBA 1000 mM (highest concentration tested), 3 days, Fig. 1B): significant decrease; TNF-a-induced inhibition of cell proliferation (MC3T3-E1 cells [2]; TNF-a 1 or 10 ng/ml plus DHMBA 1 or 10 mM, 3 days, Fig. 3A): suppressed

Reference: patent EP4778516A1, “CALCIFICATION ENHANCER FOR OSTEOBLAST MC3T3-E1 CELL” (Watanabe Oyster Laboratory Co., Ltd., priority 2023, dated 2025)
